According to ChEMBL document CHEMBL5727642, “Bicyclic proline compounds” (2020):

Assay: FLIPR Tetra Assay: IC50 (effective concentration) of compounds on the human and rat TRPA1 channels were determined using a FLIPR Tetra instrument. CHO cells expressing TRPA1 were plated into 384-well plates, incubated overnight at 37° C., and loaded with BD calcium indicator dye for 1 hr at 37° C. followed by 15 minutes. at room temperature. The assay buffer was Hank's Balanced Salt Solution (HBSS) containing 20 mM HEPES (pH readjusted to 7.4) along with 0.02% BSA.Following dye load and plate cool down, compounds were added to the cells using FLIPR Tetra. Plates were then incubated with compounds for 20 minutes at room temperature prior to adding agonist. Following this incubation, ˜EC80 concentration of cinnamaldehyde (75 uM for human TRPA1 and 45 uM for rat TRPA1) was added to active the channels and block of cinnamaldehyde induced calcium influx was measured.

Structure (SMILES) | IC50
O=C(NCc1cc(-c2cnc(C(F)(F)F)nc2)c(F)cn1)[C@@H]1C2CC(C2)N1S(=O)(=O)c1ccc(F)c(F)c1 | 10.6 nM
O=C(NCc1cc(-c2cnc(C(F)(F)F)nc2)cnc1C(F)(F)F)[C@@H]1C2CC(C2)N1S(=O)(=O)c1ccc(F)cc1 | 12.1 nM
O=C(NCc1cc(-c2cnc(C(F)(F)F)nc2)ncc1C1CC1)[C@@H]1C2CC(C2)N1S(=O)(=O)c1ccc(F)cc1 | 16.3 nM
O=C(NCc1cc(-c2cnc(C(F)(F)F)nc2)ncc1Cl)[C@@H]1C2CC(C2)N1S(=O)(=O)c1ccc(F)cc1 | 6.08 nM
